Tested on: hyaluronic acid
Conditions: topical application, mice
Experimental: The dorsal skin of mice (ddy strain/5 week old/male) was clipped with electric clippers and a Vaseline based retinoic acid preparation (containing 0.1% retinoic acid) was applied to the clipped area 10 mg/cm^2 per day for 4 consecutive days.

## CC1=C(/C=C/C(C)=C/C=C/C(C)=C/C(=O)O)C(C)(C)CCC1 [retinoic acid, all-trans retinoic acid]
  colloidal iron staining of basal cells and prickle cells of the epithelium (production of hyaluronic acid): less significant

— patent US20070258926A1, “Composition containing retinoic acid nanoparticles coated with inorganic salt of polyvalent metal” (LTT BIO-PHARMA CO., LTD., priority 2003, published 2007)
